Reference: BigSolDB 2.1

COc1ccccc1OCCNCC(O)COc1cccc2[nH]c3ccccc3c12 (stereo not drawn)
solubility (mole fraction)
Settings	278.15 K	283.15 K	288.15 K	293.15 K	298.15 K	303.15 K	308.15 K	313.15 K
in THF	0.00043	0.00061	0.00085	0.00118	0.00167	0.00227	0.00302	0.004
in acetone	0.00064	0.00088	0.00117	0.00154	0.0021	0.00268	0.00354	0.0046
in ethanol	0.00062	0.00085	0.00112	0.00143	0.00185	0.00246	0.00306	0.00389
in ethyl acetate	0.00063	0.00086	0.00146	0.00187	0.0024	0.00294	0.00371	0.00424
in methanol	0.00063	0.00087	0.00114	0.0015	0.00201	0.00256	0.00329	0.00419
in water	0.0196	0.0232	0.0278	0.033	0.0398	0.0468	0.0552	0.0641
